Results on 10 molecules are retold here after ChEMBL document CHEMBL5465560, “Selectivity Literature for EUbOPEN Chemogenomic Library” (2024).

Assay [1] concerns the target Serine/threonine-protein kinase PAK 6 (Homo sapiens) (UniProt Q9NQU5). Description: Selectivity interaction (Kinase panel (Z-LYTE Assay)) EUB0001632a PAK6. The conditions noted are these: at 10 µM.
Assay [2] concerns the target STE20-like serine/threonine-protein kinase (Homo sapiens, UniProt Q9H2G2). Briefly: Selectivity interaction (Kinase panel (KiNativ target engagement assay in Jurkat cells)) EUB0001635a SLK. The conditions noted are these: Selectivity number of off-targets 0.0, Selectivity number of targets 233.0, Source Knowledge https://www.sciencedirect.com/science/article/pii/S2451945619300674?via%3Dihub, at 1 µM. The class given is cell-based.

In assay [3] the target is Histone-lysine N-methyltransferase, H3 lysine-79 specific (Homo sapiens, UniProt Q8TEK3). The conditions noted are these: at 10 µM.
Assay [4] concerns the target Cyclin-dependent kinase 15 (Homo sapiens) (UniProt Q96Q40). Briefly: Selectivity interaction (KinomeScan (DiscoverX)) EUB0000655a CDK15. The conditions noted are these: at 10 µM.
Assay [5] addresses Mitogen-activated protein kinase 4 (Homo sapiens) (UniProt P31152). Briefly: Selectivity interaction (KinomeScan (DiscoverX)) EUB0001079a MAPK4. Conditions: at 1 µM.
Assay [6] has as its target Tyrosine-protein kinase Lyn (Homo sapiens, UniProt P07948). Briefly: Selectivity interaction (KinomeScan (DiscoverX)) EUB0001079a LYN. Conditions: at 1 µM.
The target of assay [7] is T1, Prostaglandin G/H synthase 2 (Homo sapiens) (UniProt P35354).
T1 sequence (whole entry): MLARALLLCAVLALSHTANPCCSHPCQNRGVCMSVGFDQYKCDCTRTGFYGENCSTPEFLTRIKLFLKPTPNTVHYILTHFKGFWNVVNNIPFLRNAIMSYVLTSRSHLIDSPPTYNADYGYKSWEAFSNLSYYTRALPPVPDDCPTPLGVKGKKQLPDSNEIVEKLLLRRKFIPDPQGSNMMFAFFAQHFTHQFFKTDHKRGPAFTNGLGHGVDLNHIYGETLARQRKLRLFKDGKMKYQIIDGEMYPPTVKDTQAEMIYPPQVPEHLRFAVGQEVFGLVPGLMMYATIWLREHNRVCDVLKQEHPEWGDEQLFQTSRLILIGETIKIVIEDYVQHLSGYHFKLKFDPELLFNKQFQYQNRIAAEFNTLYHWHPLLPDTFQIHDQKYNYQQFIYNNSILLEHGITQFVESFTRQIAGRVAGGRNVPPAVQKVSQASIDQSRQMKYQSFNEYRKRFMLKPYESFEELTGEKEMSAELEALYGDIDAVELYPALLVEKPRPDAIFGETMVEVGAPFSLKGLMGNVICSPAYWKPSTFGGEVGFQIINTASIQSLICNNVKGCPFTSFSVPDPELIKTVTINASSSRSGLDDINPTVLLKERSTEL
Briefly: Selectivity interaction (Panel of kinases, GPCRs, ion channels and transporters (enzymatic assay)) EUB0000266bCl PTGS2.

In assay [8] the target is T2, Myotonin-protein kinase (Homo sapiens) (UniProt Q09013).
T2 sequence (whole entry): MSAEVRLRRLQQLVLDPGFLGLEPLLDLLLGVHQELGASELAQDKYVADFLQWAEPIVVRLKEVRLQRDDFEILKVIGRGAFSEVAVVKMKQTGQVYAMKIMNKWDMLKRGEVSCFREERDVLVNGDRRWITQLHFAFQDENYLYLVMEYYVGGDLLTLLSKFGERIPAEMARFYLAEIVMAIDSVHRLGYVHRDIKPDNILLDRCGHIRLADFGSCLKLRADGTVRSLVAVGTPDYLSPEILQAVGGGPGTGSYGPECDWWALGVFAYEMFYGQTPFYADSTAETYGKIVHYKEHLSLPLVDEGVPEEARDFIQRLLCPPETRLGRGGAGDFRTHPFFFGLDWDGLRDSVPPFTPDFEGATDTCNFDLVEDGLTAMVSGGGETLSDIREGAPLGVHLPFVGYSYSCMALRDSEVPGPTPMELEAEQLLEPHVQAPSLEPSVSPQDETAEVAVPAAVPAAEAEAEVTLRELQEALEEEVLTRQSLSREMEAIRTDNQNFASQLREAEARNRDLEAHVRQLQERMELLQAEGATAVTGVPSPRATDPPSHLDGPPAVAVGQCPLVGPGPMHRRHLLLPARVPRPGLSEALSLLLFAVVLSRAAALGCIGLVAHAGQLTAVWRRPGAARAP
Conditions: at 10 µM.

Assay [9] concerns the target Transcription initiation factor TFIID subunit 1-like (Homo sapiens) (UniProt Q8IZX4). Description: Selectivity interaction (Bromodomain panel (DSF asssay)) EUB0000270b TAF1L.
The target of assay [10] is Tyrosine-protein kinase Fgr (Homo sapiens) (UniProt P09769). Briefly: Selectivity interaction (KinomeScan (DiscoverX)) EUB0000045b FGR.
Assay [11] has as its target T3, Ephrin type-B receptor 3 (Homo sapiens) (UniProt P54753).
T3 sequence (whole entry): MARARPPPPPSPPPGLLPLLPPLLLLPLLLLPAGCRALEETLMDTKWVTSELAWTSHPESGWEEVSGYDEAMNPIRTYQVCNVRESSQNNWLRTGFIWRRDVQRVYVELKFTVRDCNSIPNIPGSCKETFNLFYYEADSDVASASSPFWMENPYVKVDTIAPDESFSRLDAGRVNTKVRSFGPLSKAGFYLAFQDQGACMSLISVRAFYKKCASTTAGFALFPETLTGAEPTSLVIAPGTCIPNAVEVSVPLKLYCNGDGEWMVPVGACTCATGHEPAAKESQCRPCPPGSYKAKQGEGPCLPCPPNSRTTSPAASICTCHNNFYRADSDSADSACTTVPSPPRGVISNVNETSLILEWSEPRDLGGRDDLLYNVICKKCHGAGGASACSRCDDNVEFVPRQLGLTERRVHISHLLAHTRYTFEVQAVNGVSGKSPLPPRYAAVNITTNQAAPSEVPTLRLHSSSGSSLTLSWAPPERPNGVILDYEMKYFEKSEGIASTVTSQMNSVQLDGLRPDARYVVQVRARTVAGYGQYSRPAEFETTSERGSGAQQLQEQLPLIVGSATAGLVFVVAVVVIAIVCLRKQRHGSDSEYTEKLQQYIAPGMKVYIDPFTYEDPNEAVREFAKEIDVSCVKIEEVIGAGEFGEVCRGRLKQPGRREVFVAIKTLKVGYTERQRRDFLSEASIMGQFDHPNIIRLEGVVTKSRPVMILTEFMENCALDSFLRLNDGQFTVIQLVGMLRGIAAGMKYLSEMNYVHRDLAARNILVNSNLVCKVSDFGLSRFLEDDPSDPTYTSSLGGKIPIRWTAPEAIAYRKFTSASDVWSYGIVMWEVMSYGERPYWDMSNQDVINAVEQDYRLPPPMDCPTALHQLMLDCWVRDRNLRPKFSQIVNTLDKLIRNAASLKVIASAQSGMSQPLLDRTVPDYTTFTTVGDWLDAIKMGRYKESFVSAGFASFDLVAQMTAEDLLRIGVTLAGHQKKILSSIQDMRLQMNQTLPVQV
Description: Selectivity interaction (Upstate Kinase Profiler service (Millipore)) EUB0000056c EPHB3. The conditions noted are these: at 1 µM.

Tyrosine-protein kinase Fgr (Homo sapiens), sequence (P09769 2-529 limits assumed): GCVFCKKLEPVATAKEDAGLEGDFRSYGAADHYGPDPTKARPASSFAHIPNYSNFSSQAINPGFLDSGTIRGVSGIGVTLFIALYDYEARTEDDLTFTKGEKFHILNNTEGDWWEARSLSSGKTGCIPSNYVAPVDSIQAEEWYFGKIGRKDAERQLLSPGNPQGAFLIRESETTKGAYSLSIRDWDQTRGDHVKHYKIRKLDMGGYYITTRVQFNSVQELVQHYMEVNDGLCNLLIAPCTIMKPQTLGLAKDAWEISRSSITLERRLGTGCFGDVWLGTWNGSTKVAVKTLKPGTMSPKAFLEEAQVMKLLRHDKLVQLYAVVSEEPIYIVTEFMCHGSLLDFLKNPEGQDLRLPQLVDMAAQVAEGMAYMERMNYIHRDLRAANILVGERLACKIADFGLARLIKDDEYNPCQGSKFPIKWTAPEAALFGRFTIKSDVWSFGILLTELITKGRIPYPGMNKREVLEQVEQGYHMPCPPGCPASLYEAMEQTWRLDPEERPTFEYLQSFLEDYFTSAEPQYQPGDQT
Mitogen-activated protein kinase 4 (Homo sapiens), sequence (P31152 whole entry): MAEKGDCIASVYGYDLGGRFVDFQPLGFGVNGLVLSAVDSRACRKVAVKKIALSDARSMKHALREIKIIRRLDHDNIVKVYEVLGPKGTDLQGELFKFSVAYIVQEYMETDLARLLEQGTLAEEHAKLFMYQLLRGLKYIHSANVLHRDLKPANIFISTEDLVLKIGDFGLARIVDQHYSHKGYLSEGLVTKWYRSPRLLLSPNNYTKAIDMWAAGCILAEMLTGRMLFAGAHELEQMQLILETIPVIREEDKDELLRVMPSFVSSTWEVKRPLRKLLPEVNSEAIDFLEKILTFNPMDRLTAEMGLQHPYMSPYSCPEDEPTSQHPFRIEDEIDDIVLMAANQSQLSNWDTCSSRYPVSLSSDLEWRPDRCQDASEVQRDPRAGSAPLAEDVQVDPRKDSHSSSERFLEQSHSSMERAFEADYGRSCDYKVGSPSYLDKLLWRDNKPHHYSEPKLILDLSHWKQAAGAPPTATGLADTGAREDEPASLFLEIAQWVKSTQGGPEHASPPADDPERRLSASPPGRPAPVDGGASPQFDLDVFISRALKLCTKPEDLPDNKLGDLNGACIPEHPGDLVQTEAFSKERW
Transcription initiation factor TFIID subunit 1-like (Homo sapiens), sequence (Q8IZX4 whole entry): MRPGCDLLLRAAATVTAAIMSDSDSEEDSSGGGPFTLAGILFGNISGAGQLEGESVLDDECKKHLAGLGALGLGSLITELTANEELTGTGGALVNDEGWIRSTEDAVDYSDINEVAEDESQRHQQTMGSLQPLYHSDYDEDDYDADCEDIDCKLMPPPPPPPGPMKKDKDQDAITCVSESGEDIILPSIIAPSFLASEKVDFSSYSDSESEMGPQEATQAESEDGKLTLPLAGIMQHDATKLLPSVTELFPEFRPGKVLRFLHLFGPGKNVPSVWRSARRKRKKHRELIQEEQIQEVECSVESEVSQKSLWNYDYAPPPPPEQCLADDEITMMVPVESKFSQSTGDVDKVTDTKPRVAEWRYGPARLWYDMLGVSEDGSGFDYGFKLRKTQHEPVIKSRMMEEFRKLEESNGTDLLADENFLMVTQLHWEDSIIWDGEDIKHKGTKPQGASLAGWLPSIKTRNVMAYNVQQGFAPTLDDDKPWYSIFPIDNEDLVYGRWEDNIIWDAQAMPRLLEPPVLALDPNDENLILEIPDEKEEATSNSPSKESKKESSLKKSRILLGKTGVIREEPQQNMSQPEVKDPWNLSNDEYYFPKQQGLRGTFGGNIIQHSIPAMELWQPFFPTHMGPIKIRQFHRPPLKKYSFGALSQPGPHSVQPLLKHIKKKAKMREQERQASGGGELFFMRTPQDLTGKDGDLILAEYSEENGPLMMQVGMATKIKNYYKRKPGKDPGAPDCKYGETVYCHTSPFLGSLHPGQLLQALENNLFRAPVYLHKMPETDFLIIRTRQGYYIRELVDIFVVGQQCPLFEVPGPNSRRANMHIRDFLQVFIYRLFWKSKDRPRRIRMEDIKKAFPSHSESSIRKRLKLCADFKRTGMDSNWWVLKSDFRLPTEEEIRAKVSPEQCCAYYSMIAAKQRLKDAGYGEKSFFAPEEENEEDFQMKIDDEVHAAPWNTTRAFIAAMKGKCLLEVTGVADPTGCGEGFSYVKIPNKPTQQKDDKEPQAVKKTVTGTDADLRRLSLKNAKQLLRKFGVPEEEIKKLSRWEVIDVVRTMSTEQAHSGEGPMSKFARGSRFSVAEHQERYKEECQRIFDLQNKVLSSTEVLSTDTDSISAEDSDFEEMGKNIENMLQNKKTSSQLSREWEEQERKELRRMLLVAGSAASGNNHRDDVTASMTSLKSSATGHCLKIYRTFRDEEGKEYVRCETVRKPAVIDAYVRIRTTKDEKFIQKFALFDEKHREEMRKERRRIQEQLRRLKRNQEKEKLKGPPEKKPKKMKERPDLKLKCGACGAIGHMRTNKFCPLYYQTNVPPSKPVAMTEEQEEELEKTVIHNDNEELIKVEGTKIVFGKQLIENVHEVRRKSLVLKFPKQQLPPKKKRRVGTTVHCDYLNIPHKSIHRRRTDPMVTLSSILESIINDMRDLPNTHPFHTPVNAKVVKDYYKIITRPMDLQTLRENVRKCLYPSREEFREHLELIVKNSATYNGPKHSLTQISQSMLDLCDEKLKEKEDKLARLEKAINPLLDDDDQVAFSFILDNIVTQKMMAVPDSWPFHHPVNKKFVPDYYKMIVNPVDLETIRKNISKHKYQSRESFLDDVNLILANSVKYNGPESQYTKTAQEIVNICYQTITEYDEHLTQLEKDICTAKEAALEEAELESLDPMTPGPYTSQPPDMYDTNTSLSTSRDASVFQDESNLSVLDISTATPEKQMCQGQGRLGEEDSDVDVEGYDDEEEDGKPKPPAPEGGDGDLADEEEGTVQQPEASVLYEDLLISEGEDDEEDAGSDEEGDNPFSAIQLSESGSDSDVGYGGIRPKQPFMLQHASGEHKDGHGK
Serine/threonine-protein kinase PAK 6 (Homo sapiens), sequence (Q9NQU5 whole entry, looked up): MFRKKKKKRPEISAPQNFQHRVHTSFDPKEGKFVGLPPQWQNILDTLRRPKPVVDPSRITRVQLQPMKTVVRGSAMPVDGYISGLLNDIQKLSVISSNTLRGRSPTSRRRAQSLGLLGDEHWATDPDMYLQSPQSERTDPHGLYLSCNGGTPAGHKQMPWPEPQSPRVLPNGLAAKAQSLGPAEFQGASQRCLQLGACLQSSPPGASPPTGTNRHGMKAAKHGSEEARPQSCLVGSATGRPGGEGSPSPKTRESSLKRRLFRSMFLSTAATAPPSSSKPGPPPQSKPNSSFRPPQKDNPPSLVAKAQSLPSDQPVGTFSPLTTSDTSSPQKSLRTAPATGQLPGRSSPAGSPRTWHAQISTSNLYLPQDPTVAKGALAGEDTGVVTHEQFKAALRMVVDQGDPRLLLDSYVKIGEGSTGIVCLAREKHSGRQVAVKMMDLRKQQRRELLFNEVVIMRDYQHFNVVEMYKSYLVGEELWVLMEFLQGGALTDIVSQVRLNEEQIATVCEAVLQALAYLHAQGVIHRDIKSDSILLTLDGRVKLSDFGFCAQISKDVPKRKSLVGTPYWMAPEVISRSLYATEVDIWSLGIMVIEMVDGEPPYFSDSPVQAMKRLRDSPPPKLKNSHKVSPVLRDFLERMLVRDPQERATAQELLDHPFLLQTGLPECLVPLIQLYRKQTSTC
STE20-like serine/threonine-protein kinase, sequence (Q9H2G2 whole entry, looked up): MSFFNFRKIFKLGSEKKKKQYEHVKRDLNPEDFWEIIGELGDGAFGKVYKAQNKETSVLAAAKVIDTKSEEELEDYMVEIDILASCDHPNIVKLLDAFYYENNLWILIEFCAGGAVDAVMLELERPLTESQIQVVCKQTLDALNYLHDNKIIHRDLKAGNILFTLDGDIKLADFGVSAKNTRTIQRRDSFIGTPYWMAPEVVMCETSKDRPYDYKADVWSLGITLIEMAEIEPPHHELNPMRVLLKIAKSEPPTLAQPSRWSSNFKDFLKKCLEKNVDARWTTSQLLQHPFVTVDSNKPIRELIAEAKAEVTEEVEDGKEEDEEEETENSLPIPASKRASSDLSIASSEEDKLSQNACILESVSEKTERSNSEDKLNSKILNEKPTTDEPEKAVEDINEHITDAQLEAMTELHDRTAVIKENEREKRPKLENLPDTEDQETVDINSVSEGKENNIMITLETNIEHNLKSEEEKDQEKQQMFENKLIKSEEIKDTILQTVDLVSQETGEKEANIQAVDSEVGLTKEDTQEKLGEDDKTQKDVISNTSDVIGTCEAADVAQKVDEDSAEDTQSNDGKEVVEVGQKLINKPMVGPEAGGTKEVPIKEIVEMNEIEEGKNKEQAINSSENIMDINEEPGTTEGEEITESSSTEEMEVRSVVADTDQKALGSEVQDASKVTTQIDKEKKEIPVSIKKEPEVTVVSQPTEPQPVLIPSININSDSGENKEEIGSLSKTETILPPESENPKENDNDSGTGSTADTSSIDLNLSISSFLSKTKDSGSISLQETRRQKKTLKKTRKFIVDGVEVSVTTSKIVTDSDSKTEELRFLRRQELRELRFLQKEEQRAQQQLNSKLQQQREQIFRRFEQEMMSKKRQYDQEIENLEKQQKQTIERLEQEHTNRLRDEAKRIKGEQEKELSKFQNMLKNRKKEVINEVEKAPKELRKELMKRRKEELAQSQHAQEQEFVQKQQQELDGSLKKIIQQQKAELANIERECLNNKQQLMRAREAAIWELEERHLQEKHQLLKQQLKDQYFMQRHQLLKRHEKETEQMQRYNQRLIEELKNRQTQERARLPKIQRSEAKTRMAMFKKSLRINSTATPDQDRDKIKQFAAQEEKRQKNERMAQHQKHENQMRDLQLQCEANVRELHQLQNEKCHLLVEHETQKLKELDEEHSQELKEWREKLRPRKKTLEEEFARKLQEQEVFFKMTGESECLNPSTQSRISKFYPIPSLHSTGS

In the case of `Cn1cc(-n2cnc3c(NCc4nc5cc(Cl)c(Cl)cc5[nH]4)nc(N4CCOCC4)nc32)cn1`, the % of control in assay [1] is -5.74%.

For `C=CC(=O)Nc1ccc(C(=O)Nc2[nH]nc3c2CN(C(=O)N[C@H](CN(C)C)c2ccccc2)C3(C)C)cc1`, the % of engagement in assay [2] is -7.6%.

Molecule `CNCCN1CCC(c2cc(CN(C)C(=O)c3cccc(Oc4ccccc4)c3)ccn2)CC1` returned a % activity in [3] greater than 90%.

For the molecule `CN(C)CCOc1ccc(-c2nc(-c3ccncc3)c(-c3ccc4c(c3)CC/C4=N\O)[nH]2)cc1`, the % of control in [4] was determined as 100%.

Regarding `Nc1cnc(N2CCc3cc(S(=O)(=O)Nc4c(F)cc(Cl)cc4F)cc(N4CCCC4=O)c32)nc1` [TP-020n], the % of control in [5] was determined as 100%; in [6], 88%.

Consider `CCn1c(-c2nc3cc(C(=O)N4CCCC(N)C4)ccc3n2C)cc2ccccc21` (configuration not stated), for which the pXC50 in assay [7] was less than 4 M.

Consider `CCN(CC)CCCCNc1ncc2cc(-c3cc(OC)cc(OC)c3)c(NC(=O)NC(C)(C)C)nc2n1`, for which the % of control in [8] worked out at 100%.

In assay [9], `Cc1cc(CN)cc(C)c1-c1ncn(C)c1-c1cncn1C` had a dTM of -1.56 K.

On to `C=CC(=O)Nc1cc(-n2c(=O)ccc3cnc4ccc(-c5ccc(NS(C)(=O)=O)cc5)cc4c32)ccc1C`, for which the % of control in [10] (at 1 µM) stood at 72%; in assay [10] (at 10 µM), 79%.

Consider `Cc1ccc(-c2ccc3c(ccc4sc5c(c43)NC[C@@H](C)NC5=O)n2)cn1`, for which the % of inhibition in [11] is -22%.
